The record followed here is patent US9290451B2 (Hoffmann-La Roche Inc., priority 2011, dated 2016).

In general, EC50 refers to the midpoint of the concentration-response curve.

Where two headings read alike, the source gives them in different places.

One assay deals with human CB2 receptors (Homo sapiens (Human), UniProt P34972). Put plainly: cAMP assay, CHO cells expressing human CB2 receptors. The assay is classed as cell-based. Summed up: (§1)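 CHO cells, KRB buffer + 1 mM IBMX, 30 min 30 °C preincubation; compound 30 min 30 °C; lysis + TR-FRET cAMP detection, 2 h RT; cAMP from standard curve (10 μM–0.13 nM); EC50.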
In the next assay the target is human CB1 receptors (Homo sapiens (Human), UniProt P21554). Description: cAMP assay, CHO cells expressing human CB1 receptors. The assay is classed as cell-based. Summed up:
as §1
In general terms: Changes in cAMP serve as a functional read-out for many G protein-coupled receptors.

Setting [1] is: CHO cells expressing human CB2, cAMP, read-out: human CB2 EC50.
The mark [2] stands for this setting: CHO cells expressing human CB1, cAMP, read-out: human CB1 EC50.

Chain of human CB1 receptors (P21554 whole entry): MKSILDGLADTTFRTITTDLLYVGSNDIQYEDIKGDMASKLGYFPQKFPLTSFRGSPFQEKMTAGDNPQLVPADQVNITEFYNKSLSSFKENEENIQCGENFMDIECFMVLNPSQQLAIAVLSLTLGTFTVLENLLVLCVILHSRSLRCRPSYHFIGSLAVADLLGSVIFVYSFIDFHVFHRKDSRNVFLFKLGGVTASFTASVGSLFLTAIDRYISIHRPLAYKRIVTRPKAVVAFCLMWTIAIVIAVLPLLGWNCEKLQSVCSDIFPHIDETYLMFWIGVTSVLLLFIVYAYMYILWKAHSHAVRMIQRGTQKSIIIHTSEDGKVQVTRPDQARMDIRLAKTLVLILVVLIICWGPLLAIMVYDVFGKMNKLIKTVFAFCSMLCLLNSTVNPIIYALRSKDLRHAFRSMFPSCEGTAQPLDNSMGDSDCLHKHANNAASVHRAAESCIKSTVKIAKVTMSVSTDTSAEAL
Chain of human CB2 receptors (P34972 whole entry): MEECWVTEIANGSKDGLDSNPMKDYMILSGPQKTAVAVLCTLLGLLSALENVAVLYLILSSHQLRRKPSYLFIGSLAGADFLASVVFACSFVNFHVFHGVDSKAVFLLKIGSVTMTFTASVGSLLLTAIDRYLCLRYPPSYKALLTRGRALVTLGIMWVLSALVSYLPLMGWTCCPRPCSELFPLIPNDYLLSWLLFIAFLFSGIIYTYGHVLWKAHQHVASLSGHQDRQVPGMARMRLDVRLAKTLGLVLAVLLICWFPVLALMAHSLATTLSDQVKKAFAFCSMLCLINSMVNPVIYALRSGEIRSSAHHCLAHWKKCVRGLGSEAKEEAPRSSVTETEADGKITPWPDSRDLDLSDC

Take `CC(C)C[C@H](NC(=O)c1ccc(C2CCOC2)c(OCC2CC2)n1)C(N)=O` (stereo partly drawn) [Example 114, 6-Cyclopropylmethoxy-5-(tetrahydro-furan-3-yl)-pyridine-2-carboxylic acid ((S)-1-carbamoyl-3-methyl-butyl)-amide]: the EC50 was found to be 5.7 nM on human CB2 receptors (setting [1]) and 703 nM on human CB1 receptors (setting [2]).
Turning to `CC(C)C[C@H](NC(=O)c1ccc(C2CCCO2)c(OCC2CC2)n1)C(N)=O` (stereo partly drawn) [Example 115, 6-Cyclopropylmethoxy-5-(tetrahydro-furan-2-yl)-pyridine-2-carboxylic acid ((S)-1-carbamoyl-3-methyl-butyl)-amide], the results for the EC50 at human CB2 receptors (setting [1]) and at human CB1 receptors (setting [2]) were 6.6 nM and 953 nM, respectively.
In the case of `CC(C)(NC(=O)c1ccc(C2CC2)c(-c2cccc(Cl)c2)n1)c1nccs1` [Example 116, 6-(3-Chloro-phenyl)-5-cyclopropyl-pyridine-2-carboxylic acid (1-methyl-1-thiazol-2-yl-ethyl)-amide], the results for the EC50 at human CB2 receptors and on human CB1 receptors were 85.9 nM and 1450 nM, respectively.
Turning to `COCCOCC(C)(C)NC(=O)c1ccc(C2CC2)c(OCC2CC2)n1` [Example 117, 5-Cyclopropyl-6-cyclopropylmethoxy-pyridine-2-carboxylic acid [2-(2-methoxy-ethoxy)-1,1-dimethyl-ethyl]-amide], the EC50 at human CB2 receptors (setting [1]) was 350 nM; at human CB1 receptors (setting [2]), more than 10000 nM.
Turning to `CC(C)C[C@H](NC(=O)c1ccc(C(F)(F)F)c(OCC2CC2)n1)C(N)=O` [Example 118, 6-Cyclopropylmethoxy-5-trifluoromethyl-pyridine-2-carboxylic acid ((S)-1-carbamoyl-3-methyl-butyl)-amide], the half-maximal effective concentration (EC50) is 13.4 nM at human CB2 receptors (setting [1]) and 1550 nM at human CB1 receptors (setting [2]).
`CC(C)(NC(=O)c1ccc(C(F)(F)F)c(OCC2CC2)n1)c1ncon1` [Example 119, 6-Cyclopropylmethoxy-5-trifluoromethyl-pyridine-2-carboxylic acid (1-methyl-1-[1,2,4]oxadiazol-3-yl-ethyl)-amide]: the 50% effective concentration (EC50) is 227 nM at human CB2 receptors (setting [1]) and more than 10000 nM on human CB1 receptors (setting [2]).
The like results for `Cc1nc(C(C)(C)NC(=O)c2ccc(C(F)(F)F)c(OCC3CC3)n2)no1` [Example 120, 6-Cyclopropylmethoxy-5-trifluoromethyl-pyridine-2-carboxylic acid [1-methyl-1-(5-methyl-[1,2,4]oxadiazol-3-yl)-ethyl]-amide] were, in that order, 259 nM and more than 10000 nM.
On the same counts, the results for `CC(C)(NC(=O)c1ccc(C(F)(F)F)c(OCC2CC2)n1)c1nccs1` [Example 121, 6-Cyclopropylmethoxy-5-trifluoromethyl-pyridine-2-carboxylic acid (1-methyl-1-thiazol-2-yl-ethyl)-amide] are 111 nM and 1350 nM.
`O=C(NC1CCCCC1CO)c1cccc(C2CCCCC2)n1` (centres unmarked) [Example 122, 6-Cyclohexyl-pyridine-2-carboxylic acid (2-hydroxymethyl-cyclohexyl)-amide]: the EC50 on human CB2 receptors (setting [1]) is 158 nM; at human CB1 receptors (setting [2]) it was more than 10000 nM.
On the same counts, the results for `Cc1nc(C(C)(C)NC(=O)c2ccc(C3CCCO3)c(OCC3CC3)n2)no1` (centres unmarked) [Example 123, 6-Cyclopropylmethoxy-5-(tetrahydro-furan-2-yl)-pyridine-2-carboxylic acid [1-methyl-1-(5-methyl-[1,2,4]oxadiazol-3-yl)-ethyl]-amide] are 20 nM and more than 10000 nM.
The like results for `Cc1nc(C(C)(C)NC(=O)c2ccc(C3CCOC3)c(OCC3CC3)n2)no1` (centres unmarked) [Example 124, 6-Cyclopropylmethoxy-5-(tetrahydro-furan-3-yl)-pyridine-2-carboxylic acid [1-methyl-1-(5-methyl-[1,2,4]oxadiazol-3-yl)-ethyl]-amide] were, in that order, 79.2 nM and more than 10000 nM.
The like results for `Cc1nc(C(C)(C)NC(=O)c2ccc(C3CCCO3)c(-c3cccc(Cl)c3)n2)no1` (centres unmarked) [Example 125, 6-(3-Chloro-phenyl)-5-(tetrahydro-furan-2-yl)-pyridine-2-carboxylic acid [1-methyl-1-(5-methyl-[1,2,4]oxadiazol-3-yl)-ethyl]-amide] were, in that order, 209 nM and more than 10000 nM.
Turning to `CC(C)(NC(=O)c1ccc(C2CCCO2)c(-c2cccc(Cl)c2)n1)c1ncco1` (centres unmarked) [Example 126, 6-(3-Chloro-phenyl)-5-(tetrahydro-furan-2-yl)-pyridine-2-carboxylic acid (1-methyl-1-oxazol-2-yl-ethyl)-amide], the figures for the EC50 at human CB2 receptors (setting [1]) and on human CB1 receptors (setting [2]) were 240 nM and more than 10000 nM, respectively.
The like results for `CC(C)(NC(=O)c1ccc(C2CCCO2)c(-c2cccc(Cl)c2)n1)c1nccs1` (centres unmarked) [Example 127, 6-(3-Chloro-phenyl)-5-(tetrahydro-furan-2-yl)-pyridine-2-carboxylic acid (1-methyl-1-thiazol-2-yl-ethyl)-amide] were, in that order, 224 nM and more than 10000 nM.
On to `CC(C)(NC(=O)c1ccc(C2CCCC2)c(-c2cccc(Cl)c2)n1)c1nccs1` [Example 128, 6-(3-Chloro-phenyl)-5-cyclopentyl-pyridine-2-carboxylic acid (1-methyl-1-thiazol-2-yl-ethyl)-amide], for which the concentration for a half-maximal effect (EC50) on human CB2 receptors (setting [1]) is 240 nM; on human CB1 receptors (setting [2]), more than 10000 nM.
For `CC(C)(NC(=O)c1ccc(C(F)(F)F)c(OCC2CC2)n1)c1ncco1` [Example 129, 6-Cyclopropylmethoxy-5-trifluoromethyl-pyridine-2-carboxylic acid (1-methyl-1-oxazol-2-yl-ethyl)-amide], the EC50 was 184 nM at human CB2 receptors (setting [1]) and more than 10000 nM at human CB1 receptors (setting [2]).
For the molecule `Cc1ccc(C(=O)N[C@@H](CC2CC2)C(N)=O)nc1OCC1CC1` [Example 130, 6-Cyclopropylmethoxy-5-methyl-pyridine-2-carboxylic acid ((S)-1-carbamoyl-2-cyclopropyl-ethyl)-amide], the half-maximal effective concentration (EC50) on human CB2 receptors (setting [1]) was 50 nM; on human CB1 receptors (setting [2]) it was more than 10000 nM.
`CC(C)C[C@H](NC(=O)c1ccc(N2CC(O)C2)c(OCC2CC2)n1)C(N)=O` [Example 131, 6-Cyclopropylmethoxy-5-(3-hydroxy-azetidin-1-yl)-pyridine-2-carboxylic acid ((S)-1-carbamoyl-3-methyl-butyl)-amide]: the concentration giving a half-maximal response (EC50) was 78.4 nM at human CB2 receptors (setting [1]) and more than 10000 nM at human CB1 receptors (setting [2]).
As to `CC(C)C[C@H](NC(=O)c1ccc(N2CC(F)(F)C2)c(OCC2CC2)n1)C(N)=O` [Example 132, 6-Cyclopropylmethoxy-5-(3,3-difluoro-azetidin-1-yl)-pyridine-2-carboxylic acid ((S)-1-carbamoyl-3-methyl-butyl)-amide], the EC50 at human CB2 receptors (setting [1]) came out at 0.8 nM; at human CB1 receptors (setting [2]) it was 1130 nM.
Take `NC(=O)[C@H](CC1CC1)NC(=O)c1ccc(NC2CC2)c(OCC2CC2)n1` [Example 133, 5-Cyclopropylamino-6-cyclopropylmethoxy-pyridine-2-carboxylic acid ((S)-1-carbamoyl-2-cyclopropyl-ethyl)-amide]: the figures for the EC50 at human CB2 receptors (setting [1]) and at human CB1 receptors (setting [2]) were 37.7 nM and more than 10000 nM, respectively.
On the same counts, the results for `CC(C)C[C@H](NC(=O)c1ccc(NC2CC2)c(OCC2CC2)n1)C(N)=O` [Example 134, 5-Cyclopropylamino-6-cyclopropylmethoxy-pyridine-2-carboxylic acid ((S)-1-carbamoyl-3-methyl-butyl)-amide] are 5.1 nM and 151 nM.
`CC(C)(O)[C@H](CC1CC1)NC(=O)c1ccc(N2CC(F)(F)C2)c(OCC2CC2)n1` [Example 135, 6-Cyclopropylmethoxy-5-(3,3-difluoro-azetidin-1-yl)-pyridine-2-carboxylic acid ((S)-1-cyclopropylmethyl-2-hydroxy-2-methyl-propyl)-amide]: the EC50 was 38.2 nM on human CB2 receptors (setting [1]) and more than 10000 nM at human CB1 receptors (setting [2]).
The like results for `NC(=O)[C@H](CC1CC1)NC(=O)c1ccc(C2CCOC2)c(OCC2CC2)n1` (stereo partly drawn) [Example 136, 6-Cyclopropylmethoxy-5-(tetrahydro-furan-3-yl)-pyridine-2-carboxylic acid ((S)-1-carbamoyl-2-cyclopropyl-ethyl)-amide] were, in that order, 65.4 nM and more than 10000 nM.
Regarding `O=C(NC1CCCCC1O)c1ccc(N2CC(F)(F)C2)c(OCC2CC2)n1` (centres unmarked) [Example 137, 6-Cyclopropylmethoxy-5-(3,3-difluoro-azetidin-1-yl)-pyridine-2-carboxylic acid (2-hydroxy-cyclohexyl)-amide], the EC50 was 211 nM at human CB2 receptors (setting [1]) and more than 10000 nM on human CB1 receptors (setting [2]).
On the same counts, the results for `Cc1nc([C@H](CC2CC2)NC(=O)c2ccc(N3CC(F)(F)C3)c(OCC3CC3)n2)no1` [Example 138, 6-Cyclopropylmethoxy-5-(3,3-difluoro-azetidin-1-yl)-pyridine-2-carboxylic acid [(S)-2-cyclopropyl-1-(5-methyl-[1,2,4]oxadiazol-3-yl)-ethyl]-amide] are 26.7 nM and more than 10000 nM.
As to `CC(C)(O)[C@H](CC1CC1)NC(=O)c1ccc(C2CC2)c(OCC2CC2)n1` [Example 139, 5-Cyclopropyl-6-cyclopropylmethoxy-pyridine-2-carboxylic acid ((S)-1-cyclopropylmethyl-2-hydroxy-2-methyl-propyl)-amide], the 50% effective concentration (EC50) at human CB2 receptors (setting [1]) was 113 nM; at human CB1 receptors (setting [2]), more than 10000 nM.
The like results for `CC(C)C[C@H](NC(=O)c1ccc(N2CC(F)(F)C2)c(-c2cccc(Cl)c2)n1)C(N)=O` [Example 140, 6-(3-Chloro-phenyl)-5-(3,3-difluoro-azetidin-1-yl)-pyridine-2-carboxylic acid ((S)-1-carbamoyl-3-methyl-butyl)-amide] were, in that order, 305 nM and more than 10000 nM.
The like results for `CC(C)(CO)NC(=O)c1ccc(C2CCOC2)c(OCC2CC2)n1` (centres unmarked) [Example 141, 6-Cyclopropylmethoxy-5-(tetrahydro-furan-3-yl)-pyridine-2-carboxylic acid (2-hydroxy-1,1-dimethyl-ethyl)-amide] were, in that order, 459 nM and more than 10000 nM.
